Measurements from patent publication US10857185B2, “Compositions and methods for reprogramming non-neuronal cells into neuron-like cells” (Beihao Stem Cell and Regenerative Medicine Research …, priority 2015, dated 2020).
Entries after “also recorded” stand apart in the source; their conditions may differ.

Tests used:
CiNs = assay: Whole-cell patch-clamp recordings of CiNs; format: cell-based, mouse; settings: CiNs after re-plating; data not shown
Experimental: Primary cultures of neurons were prepared from postnatal day 1 wild-type C57 mice. Mice were decapitated, and their brains were removed in pre-cooled physiological saline. The hippocampus was dissected in pre-cooled HBSS (9.5 g/L Hanks' balanced salts, 4.2 mM NaHCO3, 10 mM HEPES, 12 mM MgSO4, 7 g/L glucose, 0.3 g/L bull serum albumin, and 0.5% penicillin/streptomycin, with the pH adjusted to 7.4 with NaOH). Tissues were digested with 5 ml 0.2% trypsin (Gibco, dissolved in digestion solution) for 2-3 min, and the digestion reaction was stopped with 1 mg/ml trypsin inhibitor (Sigma, dissolved in HBSS). The digestion solution contained (in mM) 4.2 NaHCO3, 25 HEPES, 137 NaCl, 5 KCl, and 7 Na2HPO4, and the pH was adjusted to 7.4 with NaOH. […]
For whole-cell patch-clamp recordings, the ACSF (artificial cerebrospinal fluid) extracellular solution contained (in mM) 141 NaCl, 2.5 KCl, 1.3 MgCl2, 2.4 CaCl2, 1.25 NaH2PO4 10 glucose and 10 HEPES (pH adjusted to 7.4 with NaOH), and the internal pipette solution contained (in mM) 140 potassium gluconate, 1 CaCl2, 10 EGTA, 2 MgCl2, 10 HEPES, and 5 Na2ATP (pH adjusted to 7.3 with KOH). […] Tetrodotoxin (TTX; 10 μM) dissolved in extracellular solution was applied with an ALA-VM4 valve manifold (Scientific Instruments), and washout from the iNs was assessed to determine whether the inward fast inactivating current was a sodium current. […]

fibroblasts = assay: Gene expression (RT-qPCR) after removing each small molecule from the cocktail; format: cell-based, mouse
Experimental: Total RNA was extracted using the Qiagen RNeasy Plus mini kit and was reverse transcribed into cDNA with TransScript One-step gDNA Removal and cDNA Synthesis SuperMix (TransGen Biotech). Real-time PCR was performed using a 7300 Real-Time PCR system (Applied Biosystems) with Power SYBR Green PCR Master Mix (2×).
Gene expression was analyzed using the ΔΔCt method. All the results were normalized to β-actin expression, and the values of uninduced fibroblasts were set to 1. Two replicates were used to determine the error bars.
Next, the roles of the small molecules in regulating these endogenous cell-fate-determining factors were determined.

mouse fibroblasts = assay: Transgene-free chemical induction of mouse fibroblasts into neuron-like cells (immunostaining counts); format: cell-based
Experimental: Secondary screening was performed to identify additional small molecules that facilitate neuronal reprogramming and maturation (shown schematically in FIG. 2A). In this screening, the effect of the additional small molecules was evaluated by observing neurite outgrowth. Desirable additional small molecules could induce the neurons with an improved neurite outgrowth as signs of enhanced reprogramming and maturation, ideally with highly complex morphologies. Improved neurite morphologies were evaluated in terms of enhanced neurite branches and neurite length. Further, characterization (e.g. TUJ1 immunostaining) was performed to confirm the observation. Fibroblasts were seeded into 12-well plates and each additional small molecule was added well by well into the culture medium containing the basic small-molecule cocktail (SM-cocktail+1 Screening), while SM-cocktail+DMSO was used as a negative control. […] TUJ1-positive cells with circular cell bodies and neurite outgrowth that is at least three-fold longer than the cell body were quantified. […] Cells were washed with PBS twice and then fixed with 4% paraformaldehyde for 20 min at room temperature. Afterward, the cells were washed with PBS twice and then blocked and permeabilized with 0.25% PBST (PBS plus 0.25% Triton X-100) and 3% donkey serum (DS) for 1 hour at 37° C. A PAP pen was used to outline the fields for staining. Diluted primary antibodies were added to the outlined fields, and the samples were incubated at 4° C. overnight. Next, the cells were washed three times with PBS and incubated in PBS plus 3% DS with diluted secondary antibodies for 1 hour at room temperature. The nuclei of the cells were stained with DAPI (Roche Molecular Biochemicals) if needed. […] The following secondary antibodies were used in this study: FITC and TRITC-conjugated secondary antibodies (Jackson ImmunoResearch) and Alexa Fluor 647-conjugated secondary antibodies (Life Technologies).

[1] = I-BET151 added to FICS cocktail (FICS+1 screening)

Compound: NC(CCCP(=O)(O)O)C(=O)O (stereo not shown) [AP5, 2-amino-5-phosphonovaleric acid]
- effect of receptor antagonists on EPSCs of CiNs (CiNs): blocked

Compound: N#Cc1cc2c(cc1[N+](=O)[O-])=NC(=O)C(=O)N=2 [CNQX, 6-cyano-7-nitroquinoxaline-2,3-dione]
- effect of receptor antagonists on EPSCs of CiNs (CiNs): blocked

Compound: COc1cc2c(cc1-c1c(C)noc1C)ncc1[nH]c(=O)n([C@H](C)c3ccccn3)c12 [I-BET151, 7-(3,5-dimethylisoxazol-4-yl)-8-methoxy-1-((R)-1-(pyridin-2-yl)ethyl)-1H-imidazo[4,5-c]quinolin-2(3H)-one]
- role in suppression of the endogenous fibroblast-fate-determining program (fibroblasts): core small molecule to suppress the endogenous fibroblast-fate-determining program
- TUJ1-positive cells yield (mouse fibroblasts; [1]): 90%
- reprogramming rate and neurite outgrowth of the induced neurons (mouse fibroblasts; [1]): dramatically enhanced
- toxicity to cells being induced (mouse fibroblasts; enhancing reprogramming with I-BET151): some toxicity

Compound: O=C(NC1CC1)c1cc(-c2cccs2)on1 [ISX9, N-cyclopropyl-5-(2-thienyl)-3-isoxazolecarboxamide]
- role in activation of master neural / neuron-specific genes (fibroblasts; 48 h): necessary for activation of multiple neuron-specific genes; also recorded: essential to induce the master neural genes

Compound: NC(=O)c1ccc(-c2nc(-c3ccc4c(c3)OCO4)c(-c3ccccn3)[nH]2)cc1 [SB431542, 4-[4-(1,3-benzodioxol-5-yl)-5-(2-pyridinyl)-1H-imidazol-2-yl]benzamide]
- survival and neurite outgrowth of the induced neurons (mouse fibroblasts; in FICSB cocktail): enhanced
- need of the chemical for generating neurons (mouse fibroblasts; withdrawing individual chemical from FICSB cocktail): dispensable for generating neurons

Compound: C[C@@H](N)[C@H]1CC[C@H](C(=O)Nc2ccncc2)CC1.Cl.Cl [Y2632, (+)-(R)-trans-4-(1-aminoethyl)-N-(4-pyridyl)cyclohexanecarboxamide dihydrochloride]
- survival rate and reprogramming (mouse fibroblasts; treatment from Day 0 to about day 4 together with I-BET151-containing cocktail): enhanced the survival rate and reprogramming
